The source of these data is US20040214782A1, “Treatment or prevention of coccidiosis” (priority 1999, published 2004).

SMILES strings stand for the structures.

Test [1] relates to bovine coccidia (Eimeria bovis ~90% and Eimeria auburnenis ~10%). The test is described as follows: Example 1: coccidiosis in Eimeria challenged calves, treated once clinical disease and oocyst shedding had begun. Type of test: in vivo. Particulars: for mean daily attitude scores compared to the saline controls / mean daily fecal consistency scores compared to the saline treated calves / number of animals that ceased oocyst shedding compared to the saline treated calves: amprolium oral SIDX5; for Mortality Rates: 8 calves, 21 day study; for calves that died due to coccidiosis: deaths within 24 hours of dosing; for number of animals that ceased oocyst shedding compared to the saline treated calves: from day 6 post-dosing, Formula II 5 and 2.5 mg/kg. An excerpt:
Administration of an azalide macrolide antibiotic according to the invention was compared with administration of amprolium, a commercially available agent, and saline control solution, in preventing full development of coccidiosis in Eimeria challenged calves.
Eighty naive calves weighing approximately 110-125 kg were housed in twenty holding pens (4 animals/pen) 16 days prior to study initiation. […] The calves were acclimated in order to facilitate coccidial exposure and allow time for clinical signs to develop. On day 14, with no signs of naturally occurring coccidiosis in the calves, each calf was challenged orally with a mixed culture of bovine coccidia (Eimeria bovis˜90% and Eimeria auburnenis ˜10%). Calves were each also challenged orally with 1.25×10^7 oocysts and observed for signs of clinical disease. On day 23 post-challenge, calves began to show signs of clinical disease and fecal samples were taken to determine oocyst shedding.
Calves were randomly allotted to one of six treatment groups. They were weighed at allotment and treatments administered subcutaneously in the pre-scapular region of the neck. Amprolium was administered by drench dosing (SIDX5) beginning on the day of allotment.
Rectal temperatures were determined and recorded at approximately the same time each day for the 21 day duration of the study. Attitude, hydration and fecal consistency scores were evaluated daily. Daily fecal samples were taken for qualitative analysis of the shedding of oocysts. Mortalities were necropsied and gross findings were recorded.
At termination of the experiment, surviving animals were weighed, euthanized, and post-mortem examinations conducted.

Test [2] deals with Eimeria culture (93% E bovis, 4% E. auburnenis and 3% E. zuernii). The test is described as follows: Example 2: prevention of coccidiosis in Eimeria challenged calves, treated day 10 post-challenge. The class given is in vivo. Particulars: for Mortality Rates: 10 calves, 28 day study; for clinical responses compared to saline treated animals: conclusion of Example 2; for oocyst shedding compared with the saline controls: days 19-28 post-infection; for oocyst shedding compared with the saline controls / mean daily attitude scores compared to the saline controls / mean daily fecal consistency scores compared with the saline treated calves / mean daily hydration scores compared to the saline treated calves: tilmicosin 10 mg/kg SC once, amprolium 10 mg/kg oral 5 days; for calves that died due to coccidiosis: deaths on day 23 and day 28 post-infection; for mean daily attitude scores compared to the saline controls / mean daily fecal consistency scores compared with the saline treated calves: p≦0.05. An excerpt: Administration of amprolium was compared with tilmicosin, a commercially available macrolide antibiotic, in the prevention of coccidiosis in Eimeria challenged calves.
Sixty naive calves were housed in five holding pens (12 animals/pen). Calves were held 7 days prior to challenge in order to acclimate to the facility. On days −6, −4, and −2 pre-challenge fecal samples were obtained for semi-quantitative oocyst counts. On day −4 pre-challenge, oocysts were speciated if present. On day 0 calves were inoculated orally with the Eimeria culture. Temperatures were determined and recorded at approximately the same time each day for the duration of the study. Attitude, hydration and fecal consistency scores were evaluated daily. Post-challenge, fecal samples were collected on days 2, 4, 6, 8 and 10. Oocysts were speciated on day 10 post-challenge.
On day 10 post-challenge, each of fifty animals was randomly allotted to one of five treatment groups. Agents were either administered subcutaneously in the pre-scapular region of the neck or drench dosed orally.
Post-treatment, fecal samples were taken for semi-quantitative analysis of the shedding of coccidia oocysts on days 12, 14, 16 and 18. Beginning on day 19 and continuing through day 28, daily fecal samples were evaluated for semi-quantitative counts. Speciation of shed oocysts was performed on days 19-21, 23, 26 and 28.
Calves dying during the course of the study or euthanized due to a moribund condition associated with clinical coccidiosis were considered mortalities. Mortalities were necropsied and gross findings were recorded. At study termination (day 28), all remaining animals were weighed, euthanized, and post mortem examinations conducted.
Description of Disease Outbreak—Calves were inoculated orally with 2 ml of a coccidia challenge containing 125,000 sporulated oocysts with a species percent count of 93% E bovis, 4% E. auburnenis and 3% E. zuernii coccidia oocysts. At 19 days post-challenge, oocyst shedding was detected.

Setting [3] is: Formula II 5 and 2.5 mg/kg SC once, p>0.05.
The mark [4] stands for this setting: amprolium (Corid 20% soluble powder) oral drench SIDX5.

Consider `CCCc1ncc(C[n+]2ccccc2C)c(N)n1` [Amprolium, amprolium], for which, in test [1] (setting [3]), the “mean daily attitude scores compared to the saline controls” value was “significant reductions” and the “mean daily fecal consistency scores compared to the saline treated calves” value is “statistically significant reductions”. Further, in test [1] (setting [4]), the “21 Day Average Daily Gain” value was 0.75 kg, the “Proportion of infected calves that ceased oocyst shedding 6 days post-treatment” value (shortened to “Proportion”) was 7/7 (100%) and the “Mortality Rates” value is given as 1/8 (13%). In addition, in test [1] (conclusion of Example 1), the “clinical responses (clinical scores, weight gain and oocyst shedding) compared to the saline control group” value is “improved clinical responses”. The “calves that died due to coccidiosis” value in test [1] (azalide at 5 and 2.5 mg/kg) is “one”. Further, the “number of animals that ceased oocyst shedding compared to the saline treated calves” value in test [1] (p>0.05) was “significant increase”. In addition, in test [2], the “21 day average daily weight gain relative to saline” value is recorded as “Numerical increases in weight gain”, the “clinical responses compared to saline treated animals” value is “improved clinical responses”, the “oocyst shedding compared with the saline controls” value is on record as “decreased oocyst shedding” and the “calves that died due to coccidiosis” value is “One animal”. In test [2], the “mean daily attitude scores compared to the saline controls” value is on record as “significant reductions”, the “mean daily fecal consistency scores compared with the saline treated calves” value is recorded as “statistically significant reductions” and the “mean daily hydration scores compared to the saline treated calves” value was “reductions”. For the same compound, the “21 Day Average Daily Gain” value in test [2] (amprolium 10 mg/kg, 5 days drench dosing) is 0.60 kg. Moreover, the “Mortality Rates” value in test [2] (amprolium (Corid 9.6% Oral Solution) 10 mg/kg, 5 days drench dosing) is 1/10 (10%).

Turning to `CCCN(C)C[C@]1(O)[C@H](C)O[C@@H](O[C@H]2[C@H](C)[C@@H](O[C@@H]3O[C@H](C)C[C@H](N(C)C)[C@H]3O)[C@@](C)(O)C[C@@H](C)CN[C@H](C)[C@@H](O)[C@](C)(O)[C@@H](CC)OC(=O)[C@@H]2C)C[C@@]1(C)OC` [Compound of Formula II], in test [1] (2.5 mg/kg, SIDX1, SC), the “21 Day Average Daily Gain” value stood at 1.03 kg, the “Proportion” value is recorded as 7/8 (88%) and the “Mortality Rates” value is 0/8 (0%). In test [1] (5 mg/kg, SIDX1, SC), the “21 Day Average Daily Gain” value came out at 0.79 kg, the “Proportion” value is recorded as 7/8 (88%) and the “Mortality Rates” value is on record as 0/8 (0%). In test [1] (setting [3]), the “mean daily attitude scores compared to the saline controls” value is “significant reductions”, the “mean daily fecal consistency scores compared to the saline treated calves” value is recorded as “statistically significant reductions” and the “mean daily hydration scores compared to the saline treated calves” value is “statistically significant reductions”. In test [1] (azalide at 5 and 2.5 mg/kg), the “21 day weight gain compared to the saline controls” value is listed as “Numerical increases in weight gain” and the “calves that died due to coccidiosis” value is recorded as “no mortalities”. Besides, the “clinical responses (clinical scores, weight gain and oocyst shedding) compared to the saline control group” value in test [1] (conclusion of Example 1) is recorded as “improved clinical responses”. In test [1] (conclusion of Example 1, less complicated dosing regimen), the “efficacy relative to amprolium” value is listed as “comparable to that of amprolium”. In addition, the “number of animals that ceased oocyst shedding compared to the saline treated calves” value in test [1] (p>0.05) is listed as “significant increase”.

Consider `CC[C@H]1OC(=O)C[C@@H](O)[C@H](C)[C@@H](O[C@@H]2O[C@H](C)[C@@H](O)[C@H](N(C)C)[C@H]2O)[C@@H](CCN2C[C@H](C)C[C@H](C)C2)C[C@@H](C)C(=O)/C=C/C(C)=C/[C@@H]1CO[C@@H]1O[C@H](C)[C@@H](O)[C@@H](OC)[C@H]1OC` [Tilmicosin, tilmicosin], for which, in test [2], the “21 day average daily weight gain relative to saline” value is reported as “responded similarly”, the “clinical responses compared to saline treated animals” value is recorded as “improved clinical responses”, the “oocyst shedding compared with the saline controls” value is “decreased oocyst shedding” and the “calves that died due to coccidiosis” value is “Two animals died”. Further, in test [2], the “mean daily attitude scores compared to the saline controls” value is listed as “significant reductions”, the “mean daily fecal consistency scores compared with the saline treated calves” value is reported as “statistically significant reductions” and the “mean daily hydration scores compared to the saline treated calves” value is recorded as “reductions”. Further, in test [2] (tilmicosin 10 mg/kg SIDX1, SC), the “21 Day Average Daily Gain” value was 0.21 kg and the “Mortality Rates” value is reported as 2/10 (20%).
